In ChEMBL document CHEMBL1139604 (Bioorg Med Chem Lett, 2005):

Legend:
[1] = target: T1, Geranylgeranyl transferase type I (Bos taurus, UniProt P29702+Q5EAD5); experiment: Inhibition of bovine geranylgeranyl transferase type I in presence of Lonafarnib; format: protein-complex assay
[2] = Inhibition of bovine farnesyl transferase in presence of Lonafarnib; design: species or system Bos taurus
[3] = target: T2, Protein farnesyltransferase (Mus musculus, UniProt Q61239+Q8K2I1); experiment: Inhibition of Ras processing in H-ras transformed NIH3T3 cells in presence of Lonafarnib; format: functional, cell-based
[4] = Inhibition of bovine farnesyl transferase; design: species or system Bos taurus
[5] = target: T3, Protein farnesyltransferase (Mus musculus) (UniProt Q61239+Q8K2I1); experiment: Percent inhibition of Ras processing in H-ras transformed NIH3T3 cells at 100 nM; format: functional, cell-based
[6] = target: T3, Protein farnesyltransferase (Mus musculus); experiment: Percent inhibition of Ras processing in H-ras transformed NIH3T3 cells at 1000 nM; format: functional, cell-based
[7] = target: T1, Geranylgeranyl transferase type I; experiment: Inhibition of bovine geranylgeranyl transferase type I; format: protein-complex assay
[8] = target: T2, Protein farnesyltransferase; experiment: Inhibition of Ras processing in H-ras transformed NIH3T3 cells; format: functional, cell-based

Row | SMILES | IC50 [4] [nM] | inhibition [5] [%] | IC50 [7] [nM] | further results
1 | Cn1cncc1[C@@](N)(c1ccc(Cl)cc1)c1ccc2c(c1)c(-c1cccc(Cl)c1)cc(=O)n2C [TIPIFARNIB] |  |  |  | IC50 [1]: > 10000 nM; IC50 [2]: 8.3 nM; EC50 [3]: 100 nM
2 | Cn1cncc1C(O)(c1ccc(Cl)cc1)c1ccc2c(c1)n(C)c(=O)n2-c1cccc(Cl)c1 (stereo not drawn) | 1100 |  |  | 
3 | Cn1cncc1C(O)(c1ccc(Cl)cc1)c1ccc2c(c1)n(-c1cccc(Cl)c1)c(=O)n2C (stereo not drawn) | 16 | 26 |  | 
4 | Cn1cncc1C(O)(c1ccc(Cl)cc1)c1ccc2c(c1)n(Cc1cccc(Cl)c1)c(=O)n2C (stereo not drawn) | 150 |  |  | 
5 | Cn1cncc1C(O)(c1ccccc1)c1ccc2ccn(-c3cccc(Cl)c3)c2c1 (stereo not drawn) | 36 |  |  | inhibition [6]: 13%
6 | Cn1cncc1C(O)(c1ccc(C#N)cc1)c1ccc2c(c1)n(Cc1cccc(Cl)c1)c(=O)n2C (stereo not drawn) | 5.2 | 51 | 5600 | 
7 | CCOc1cccc(-n2c(=O)n(C)c3ccc(C(O)(c4ccc(C#N)cc4)c4cncn4C)cc32)c1 (stereo not drawn) | 0.5 | 47 | > 10000 | 
8 | Cn1cncc1C(O)(c1ccc(C#N)cc1)c1ccc2c(c1)n(-c1ccc3c(c1)OCO3)c(=O)n2C (stereo not drawn) | 8 | 0 | > 10000 | 
9 | Cn1cncc1C(O)(c1ccc(I)cc1)c1ccc2c(c1)n(Cc1cccc(Cl)c1)c(=O)n2C (stereo not drawn) | 71 |  |  | 
10 | Cn1cncc1C(O)(c1ccc(I)cc1)c1ccc2c(c1)n(-c1cccc(Cl)c1)c(=O)n2C (stereo not drawn) | 24 | 2 | 1200 | 
11 | Cn1cncc1C(O)(c1ccc(Cl)cc1)c1ccc2c(c1)n(-c1ccc3ccccc3c1)c(=O)n2C (stereo not drawn) | 21 | 0 | 2900 | 
12 | Cn1cncc1C(O)(c1ccccc1)c1ccc2ccn(-c3cccc4ccccc34)c2c1 (stereo not drawn) | 200 |  |  | 
13 | COc1cccc(-n2c(=O)n(C)c3ccc(C(O)(c4ccc(C#N)cc4)c4cncn4C)cc32)c1 (stereo not drawn) | 5.1 |  | > 10000 | 
14 | Cn1cncc1C(O)(c1ccc(C#N)cc1)c1ccc2c(c1)n(-c1cccc(Cl)c1)c(=O)n2C (stereo not drawn) | 1.4 |  | 1800 | EC50 [8]: 18.1 nM
15 | CCOc1cccc(-n2c(=O)n(C)c3ccc(C(O)(c4ccc(Cl)cc4)c4cncn4C)cc32)c1 (stereo not drawn) | 6.6 |  | 7500 | EC50 [8]: 22 nM
16 | Cn1cncc1C(O)(c1ccc(Cl)cc1)c1ccc2c(c1)n(-c1ccc3c(c1)OCO3)c(=O)n2C (stereo not drawn) | 150 |  |  | 
17 | COc1cccc(-n2c(=O)n(C)c3ccc(C(O)(c4ccc(Cl)cc4)c4cncn4C)cc32)c1 (stereo not drawn) | 6.7 | 24 | > 10000 | 
